From patent publication US10780074B2, “Compounds and uses thereof” (Sunovion Pharmaceuticals Inc., priority 2017, dated 2020)
Structures can show the parent of a compound that is named as a salt.

Test system: behaviors of compound-treated mice
Test: Neuropharmacological Assay (SmartCube)
Assay type: in vivo
Details: for minimal effective dose: Mus musculus, ip, 0.25 h, dose having 50% or more total activity in SmartCube, i.p., read-out: MED (minimal effective dose); for AD: ADHD (probability that activity matches class) / AG: analgesic (probability that activity matches class) / AX: anxiolytic (probability that activity matches class) / CE: cognitive enhancer (probability that activity matches class) / DP: anti-depressant (probability that activity matches class) / MS: mood stabilizer (probability that activity matches class) / PS: anti-psychotic (probability that activity matches class) / SD: sedative hypnotic (probability that activity matches class) / UN: uncharacterized CNS activity (probability that activity matches class): i.p. 15 min before behavioral test, most efficacious dose(s) of 3 doses
Outline: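 Mice dosed i.p. 15 min before testing, with compound in N-methyl-2-pyrrolidone/PEG/propylene glycol, were video-recorded and algorithmically compared with reference-drug behavioral signatures. This gave class-match probabilities (antidepressant, anxiolytic, etc.) at the most efficacious of 3 doses. MED was defined as the dose with ≥50% total activity, usually tested across 0.3–30 mpk.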

Structure (SMILES): CNC[C@@H]1OCCc2c(-c3cncnc3)cccc21 (single isomer, unassigned) [Compound 29, hydrochloride salt]
- minimal effective dose: > 30 mg/kg
- AD: ADHD (probability that activity matches class): + (LOQ ≤ + <5%)
- AG: analgesic (probability that activity matches class): + (LOQ ≤ + <5%)
- AX: anxiolytic (probability that activity matches class): + (LOQ ≤ + <5%)
- CE: cognitive enhancer (probability that activity matches class): + (LOQ ≤ + <5%)
- DP: anti-depressant (probability that activity matches class): + (LOQ ≤ + <5%)
- MS: mood stabilizer (probability that activity matches class): + (LOQ ≤ + <5%)
- PS: anti-psychotic (probability that activity matches class): + (LOQ ≤ + <5%)
- SD: sedative hypnotic (probability that activity matches class): + (LOQ ≤ + <5%)
- UN: uncharacterized CNS activity (probability that activity matches class): + (LOQ ≤ + <5%)

Structure (SMILES): NC[C@H]1OCCc2c(-c3ccncc3)cccc21 [Compound 20, (S)-(5-(Pyridin-4-yl)isochroman-1-yl)methanamine hydrochloride salt]
- minimal effective dose: ≤ 3 mg/kg
- AD: ADHD (probability that activity matches class): ++ (5% ≤ ++ <25%)
- AG: analgesic (probability that activity matches class): ++ (5% ≤ ++ <25%)
- AX: anxiolytic (probability that activity matches class): ++ (5% ≤ ++ <25%)
- CE: cognitive enhancer (probability that activity matches class): + (LOQ ≤ + <5%)
- DP: anti-depressant (probability that activity matches class): ++++ (50% ≤ ++++)
- MS: mood stabilizer (probability that activity matches class): + (LOQ ≤ + <5%)
- PS: anti-psychotic (probability that activity matches class): + (LOQ ≤ + <5%)
- SD: sedative hypnotic (probability that activity matches class): + (LOQ ≤ + <5%)
- UN: uncharacterized CNS activity (probability that activity matches class): ++++ (50% ≤ ++++)

Structure (SMILES): CNC[C@H]1OCc2c(-c3cccnc3)cccc21 [Compound 34, (S)—N-Methyl-1-(4-(pyridin-3-yl)-1,3-dihydroisobenzofuran-1-yl)methanamine hydrochloride salt]
- minimal effective dose: ≤ 3 mg/kg
- AD: ADHD (probability that activity matches class): + (LOQ ≤ + <5%)
- AG: analgesic (probability that activity matches class): + (LOQ ≤ + <5%)
- AX: anxiolytic (probability that activity matches class): ++ (5% ≤ ++ <25%)
- CE: cognitive enhancer (probability that activity matches class): + (LOQ ≤ + <5%)
- DP: anti-depressant (probability that activity matches class): ++++ (50% ≤ ++++)
- MS: mood stabilizer (probability that activity matches class): ++ (5% ≤ ++ <25%)
- PS: anti-psychotic (probability that activity matches class): + (LOQ ≤ + <5%)
- SD: sedative hypnotic (probability that activity matches class): + (LOQ ≤ + <5%)
- UN: uncharacterized CNS activity (probability that activity matches class): + (LOQ ≤ + <5%)

Structure (SMILES): NC[C@@H]1OCCc2c(-c3c[nH]cn3)cccc21 (single isomer, unassigned) [Compound 112, hydrochloride salt]
- minimal effective dose: 10 to 30 mg/kg
- AD: ADHD (probability that activity matches class): + (LOQ ≤ + <5%)
- AG: analgesic (probability that activity matches class): + (LOQ ≤ + <5%)
- AX: anxiolytic (probability that activity matches class): ++ (5% ≤ ++ <25%)
- CE: cognitive enhancer (probability that activity matches class): + (LOQ ≤ + <5%)
- DP: anti-depressant (probability that activity matches class): ++ (5% ≤ ++ <25%)
- MS: mood stabilizer (probability that activity matches class): + (LOQ ≤ + <5%)
- PS: anti-psychotic (probability that activity matches class): + (LOQ ≤ + <5%)
- SD: sedative hypnotic (probability that activity matches class): + (LOQ ≤ + <5%)
- UN: uncharacterized CNS activity (probability that activity matches class): + (LOQ ≤ + <5%)

Structure (SMILES): NC[C@@H]1OCCc2c(-c3cncs3)cccc21 (single isomer, unassigned) [Compound 70, hydrochloride salt]
- minimal effective dose: 3 to 10 mg/kg
- AD: ADHD (probability that activity matches class): ++ (5% ≤ ++ <25%)
- AG: analgesic (probability that activity matches class): + (LOQ ≤ + <5%)
- AX: anxiolytic (probability that activity matches class): ++ (5% ≤ ++ <25%)
- CE: cognitive enhancer (probability that activity matches class): + (LOQ ≤ + <5%)
- DP: anti-depressant (probability that activity matches class): ++++ (50% ≤ ++++)
- MS: mood stabilizer (probability that activity matches class): + (LOQ ≤ + <5%)
- PS: anti-psychotic (probability that activity matches class): + (LOQ ≤ + <5%)
- SD: sedative hypnotic (probability that activity matches class): + (LOQ ≤ + <5%)
- UN: uncharacterized CNS activity (probability that activity matches class): +++ (25% ≤ +++ <50%)

Structure (SMILES): NC[C@@H]1OCCc2c(-c3cnco3)cccc21 (single isomer, unassigned) [Compound 98, hydrochloride salt]
- minimal effective dose: ≤ 3 mg/kg
- AD: ADHD (probability that activity matches class): ++ (5% ≤ ++ <25%)
- AG: analgesic (probability that activity matches class): + (LOQ ≤ + <5%)
- AX: anxiolytic (probability that activity matches class): ++ (5% ≤ ++ <25%)
- CE: cognitive enhancer (probability that activity matches class): + (LOQ ≤ + <5%)
- DP: anti-depressant (probability that activity matches class): ++++ (50% ≤ ++++)
- MS: mood stabilizer (probability that activity matches class): + (LOQ ≤ + <5%)
- PS: anti-psychotic (probability that activity matches class): + (LOQ ≤ + <5%)
- SD: sedative hypnotic (probability that activity matches class): + (LOQ ≤ + <5%)
- UN: uncharacterized CNS activity (probability that activity matches class): + (LOQ ≤ + <5%)

Structure (SMILES): CNC[C@@H]1OCCCc2c(-c3cncs3)cccc21 (single isomer, unassigned) [Compound 168, hydrochloride salt]
- minimal effective dose: ≤ 3 mg/kg
- AD: ADHD (probability that activity matches class): ++ (5% ≤ ++ <25%)
- AG: analgesic (probability that activity matches class): + (LOQ ≤ + <5%)
- AX: anxiolytic (probability that activity matches class): ++ (5% ≤ ++ <25%)
- CE: cognitive enhancer (probability that activity matches class): + (LOQ ≤ + <5%)
- DP: anti-depressant (probability that activity matches class): ++++ (50% ≤ ++++)
- MS: mood stabilizer (probability that activity matches class): + (LOQ ≤ + <5%)
- PS: anti-psychotic (probability that activity matches class): + (LOQ ≤ + <5%)
- SD: sedative hypnotic (probability that activity matches class): ++ (5% ≤ ++ <25%)
- UN: uncharacterized CNS activity (probability that activity matches class): ++ (5% ≤ ++ <25%)

Structure (SMILES): Cc1cc(-c2cccc3c2CCO[C@@H]3CN)ccn1 (single isomer, unassigned) [Compound 123, hydrochloride salt]
- minimal effective dose: ≤ 3 mg/kg
- AD: ADHD (probability that activity matches class): ++ (5% ≤ ++ <25%)
- AG: analgesic (probability that activity matches class): + (LOQ ≤ + <5%)
- AX: anxiolytic (probability that activity matches class): ++ (5% ≤ ++ <25%)
- CE: cognitive enhancer (probability that activity matches class): + (LOQ ≤ + <5%)
- DP: anti-depressant (probability that activity matches class): ++++ (50% ≤ ++++)
- MS: mood stabilizer (probability that activity matches class): + (LOQ ≤ + <5%)
- PS: anti-psychotic (probability that activity matches class): + (LOQ ≤ + <5%)
- SD: sedative hypnotic (probability that activity matches class): + (LOQ ≤ + <5%)
- UN: uncharacterized CNS activity (probability that activity matches class): + (LOQ ≤ + <5%)

Structure (SMILES): Cc1cc(-c2cccc3c2CCO[C@@H]3CN)cc(C)n1 [Compound 127, dihydrochloride]
- minimal effective dose: 10 to 30 mg/kg
- AD: ADHD (probability that activity matches class): + (LOQ ≤ + <5%)
- AG: analgesic (probability that activity matches class): + (LOQ ≤ + <5%)
- AX: anxiolytic (probability that activity matches class): + (LOQ ≤ + <5%)
- CE: cognitive enhancer (probability that activity matches class): + (LOQ ≤ + <5%)
- DP: anti-depressant (probability that activity matches class): ++ (5% ≤ ++ <25%)
- MS: mood stabilizer (probability that activity matches class): + (LOQ ≤ + <5%)
- PS: anti-psychotic (probability that activity matches class): + (LOQ ≤ + <5%)
- SD: sedative hypnotic (probability that activity matches class): + (LOQ ≤ + <5%)
- UN: uncharacterized CNS activity (probability that activity matches class): + (LOQ ≤ + <5%)

Structure (SMILES): NC[C@@H]1OCCCc2c(-c3ccncn3)cccc21 (single isomer, unassigned) [Compound 166]
- minimal effective dose: 10 to 30 mg/kg
- AD: ADHD (probability that activity matches class): + (LOQ ≤ + <5%)
- AG: analgesic (probability that activity matches class): + (LOQ ≤ + <5%)
- AX: anxiolytic (probability that activity matches class): + (LOQ ≤ + <5%)
- CE: cognitive enhancer (probability that activity matches class): + (LOQ ≤ + <5%)
- DP: anti-depressant (probability that activity matches class): + (LOQ ≤ + <5%)
- MS: mood stabilizer (probability that activity matches class): + (LOQ ≤ + <5%)
- PS: anti-psychotic (probability that activity matches class): + (LOQ ≤ + <5%)
- SD: sedative hypnotic (probability that activity matches class): + (LOQ ≤ + <5%)
- UN: uncharacterized CNS activity (probability that activity matches class): + (LOQ ≤ + <5%)

Structure (SMILES): NC[C@@H]1OCCc2c(-c3cccnc3)cccc21 [Compound 15, (R)-(5-(Pyridin-3-yl)isochroman-1-yl)methanamine hydrochloride]
- minimal effective dose: 10 to 30 mg/kg
- AD: ADHD (probability that activity matches class): ++ (5% ≤ ++ <25%)
- AG: analgesic (probability that activity matches class): ++ (5% ≤ ++ <25%)
- AX: anxiolytic (probability that activity matches class): ++ (5% ≤ ++ <25%)
- CE: cognitive enhancer (probability that activity matches class): + (LOQ ≤ + <5%)
- DP: anti-depressant (probability that activity matches class): +++ (25% ≤ +++ <50%)
- MS: mood stabilizer (probability that activity matches class): ++ (5% ≤ ++ <25%)
- PS: anti-psychotic (probability that activity matches class): ++ (5% ≤ ++ <25%)
- SD: sedative hypnotic (probability that activity matches class): + (LOQ ≤ + <5%)
- UN: uncharacterized CNS activity (probability that activity matches class): + (LOQ ≤ + <5%)

Structure (SMILES): CNC[C@H]1OCCCc2c(-c3ccccn3)cccc21 (single isomer, unassigned) [Compound 157, hydrochloride salt]
- minimal effective dose: 10 to 30 mg/kg
- AD: ADHD (probability that activity matches class): + (LOQ ≤ + <5%)
- AG: analgesic (probability that activity matches class): + (LOQ ≤ + <5%)
- AX: anxiolytic (probability that activity matches class): ++ (5% ≤ ++ <25%)
- CE: cognitive enhancer (probability that activity matches class): + (LOQ ≤ + <5%)
- DP: anti-depressant (probability that activity matches class): + (LOQ ≤ + <5%)
- MS: mood stabilizer (probability that activity matches class): + (LOQ ≤ + <5%)
- PS: anti-psychotic (probability that activity matches class): + (LOQ ≤ + <5%)
- SD: sedative hypnotic (probability that activity matches class): + (LOQ ≤ + <5%)
- UN: uncharacterized CNS activity (probability that activity matches class): + (LOQ ≤ + <5%)

Structure (SMILES): NC[C@H]1OCCc2cc(-c3cccnc3)ccc21 [Compound 14, hydrochloride salt]
- minimal effective dose: 3 to 10 mg/kg
- AD: ADHD (probability that activity matches class): + (LOQ ≤ + <5%)
- AG: analgesic (probability that activity matches class): ++ (5% ≤ ++ <25%)
- AX: anxiolytic (probability that activity matches class): ++ (5% ≤ ++ <25%)
- CE: cognitive enhancer (probability that activity matches class): + (LOQ ≤ + <5%)
- DP: anti-depressant (probability that activity matches class): ++++ (50% ≤ ++++)
- MS: mood stabilizer (probability that activity matches class): + (LOQ ≤ + <5%)
- PS: anti-psychotic (probability that activity matches class): + (LOQ ≤ + <5%)
- SD: sedative hypnotic (probability that activity matches class): + (LOQ ≤ + <5%)
- UN: uncharacterized CNS activity (probability that activity matches class): ++ (5% ≤ ++ <25%)
